Test results taken from patent US20260015632A1, “CULTURE MEDIUM COMBINATION FOR INDUCING DIFFERENTIATION OF PLURIPOTENT STEM CELLS INTO CD34+ HEMATOPOIETIC STEM/PROGENITOR CELLS” (SHENZHEN CELL INSPIRE BIOTECHNOLOGY CO., LTD., priority 2023, published 2026).

How the values were obtained:
Type in all cases: cell-based, human
iPSCs [1] = assay: Optimization of iNK purity and yield, flow cytometry CD56/CD45 and fold expansion; set-up: yield of HSPCs / yield of iNK cells differentiated from these HSPCs: dose or concentration left out as unconfirmed; conditions: for proliferation rate of iNK cells: concentrations and media as in Example 5; for proportion of CD56+ or CD45+ cells / yield of iNK cells: added to fourth differentiation medium: NAD+, 0.1 ng/mL HLA-C, 1000 IU IL-2 or 15 μM SB203580
Experimental: To further improve the differentiation efficiency and cytotoxicity of the obtained NK cells, UM171 was added to the second differentiation medium. […] The expression levels of CD56 and CD45 of the obtained NK cells and the cell fold expansion were measured by flow cytometry.
(§1) The cell expansion at the HSPC stage and the NK stage was calculated by dividing the number of suspension cells obtained at the sampling time point by the initial number of iPSCs at the spheroidization stage. The cell number was determined using the Countess™ 2 automated cell counter, and specific operating procedures can be found in the instrument's instructions.

iPSCs [2] = assay: qPCR marker expression on Day 3 of iPSC differentiation, optimization of first differentiation medium; conditions: Day 3 of differentiation, 50 ng/mL BMP4, 10 μM CHIR99021; for expression of OCT4: added to first differentiation medium (mTeSR1+5 μM Y27632), alone or combined; for expression of early mesoderm and mesoderm markers (MIXL1 and T) / expression of hemogenic endothelial lineage-related markers (KDR, SCL) / expression of the HSPC marker (CD34): added to first differentiation medium
Experimental: iPSCs were aggregated into spheroids by either static spheroidization or shaking spheroidization. • 1) Static spheroidization. An appropriate number of iPSCs in a single-cell state were transferred to an AggreWell™ microwell plate, and subsequent operations were carried out according to the AggreWell™ 400 or AggreWell™ 800 instructions. Briefly, the concentration of the single-cell suspension was adjusted, and sufficient volumes of the single-cell suspension were added to each well of the AggreWell™ 400 or AggreWell™ 800 to achieve approximately 500,000 iPSCs in a single-cell state per well. Then, each well was supplemented with mTeSR™1 or TeSR™-AOF medium, and 5 μM Y27632 was added to reach a total of 5 mL/well. Then, a balance plate filled with water was prepared to match the weight and position of the AggreWell™ microwell plate in the centrifuge. The cells were then pipetted gently up and down several times to ensure uniform distribution of cells across the wells. The AggreWell™ plate was immediately centrifuged at 100 g for 3 minutes using the balanced plate prepared in the previous step to force the cells into the microwells. The plate was observed under a microscope to verify that the cells were evenly distributed in the microwells. The cells were cultured under static conditions at 37° C., 5% CO2, and 95% humidity for 1 to 2 days. • 2) Shaking spheroidization. The concentration of the single-cell suspension was adjusted, and 1.5 million iPSCs in a single-cell state were transferred to a 6-well plate. Each well was supplemented with mTeSR™1 medium containing 5 μM Y27632, 50 ng/mL BMP4, and 10 μM CHIR99021 to achieve a volume of 3 mL per well. The culture plate was placed on an orbital shaker at 60 rpm, 70 rpm, 80 rpm, or 90 rpm for culture, and the wells with uniform sized spheroids were selected for subsequent culture.
The iPSCs in the single-cell state were resuspended in the following four media after harvesting: 1) mTeSR™1+5 μM Y27632, 2) mTeSR™1+5 μM Y27632+50 ng/mL BMP4, 3) mTeSR™1+5 μM Y27632+10 μM CHIR99021, and 4) mTeSR™1+5 μM Y27632+50 ng/mL BMP4+10 μM CHIR99021. The cells were then cultured according to the method in Example 1. On Day 3 of differentiation, the cells were lysed, and mRNA was extracted and reverse-transcribed to obtain cDNA. The primers in Table 2 were used to measure the expression levels of OCT4, MIXL1, T, KDR, SCL, and CD34 in HSPCs on Day 3 of differentiation under the above-mentioned media conditions.

iPSCs [3] = assay: FACS proportion of CD34+ cells, additive in second differentiation medium; conditions: Day 12; 10 μM CHIR99021 or 0.75 μM SR1 added to second differentiation medium
Experimental: After 1 to 2 days of cell spheroidization, the medium was replaced with a second differentiation medium, and then the medium was changed every 2 days for 4 to 5 days of culture. The components of the second differentiation medium included: StemPro-34 complete medium supplemented with 1% ITS-X, 1 μM β-mercaptoethanol, 50 μg/mL ascorbic acid, 1× GlutaMAX, 50 ng/mL VEGF, 50 ng/mL bFGF, 50 ng/mL BMP4, and 35 nM UM171. At this stage, the cells can be transferred to a closed system for static culture or shaking culture.
After culturing for 3 days in the second differentiation medium, the medium was replaced with a third differentiation medium. The components of the third differentiation medium included: StemPro-34™ SFM complete medium supplemented with 1% ITS-X, 1 μM β-mercaptoethanol, 50 μg/mL ascorbic acid, 1× GlutaMAX, 50 ng/mL VEGF, 50 ng/mL bFGF, 50 ng/mL SCF, 10 ng/mL FLT3L, and 30 ng/mL TPO. The expression of CD34 or CD43, and CD44 was detected by FACS. […] The proportion and fold expansion of CD34^+ cells were detected at five time points: Day 8, Day 9, Day 10, Day 11, and Day 12. […]
In order to further increase the yield and proportion of CD34^+ cells, 10 μM CHIR99021 or 0.75 μM SR1 was added to the second differentiation medium of Example 1, and the proportion of CD34^+ cells in the cell population on Day 12 was detected by FACS. […]

iPSCs [4] = assay: UM171 in second and/or third differentiation medium: yield of HSPCs and iNK cells; conditions: 35 nM UM171 added to second differentiation medium
Experimental: 35 nM UM171 was added to the second differentiation medium and/or the third differentiation medium in Example 1, and the proportion of CD34^+ cells in the cell population on Day 12 and the proportion of CD56^+ cells in the cell population on Day 35 were detected by FACS. The results at these two time points are shown in FIG. 16, which indicate that the addition of UM171 to the second differentiation medium can increase the yield of HSPCs differentiated from iPSCs and the yield of iNK cells differentiated from HSPCs.
as §1

[5] = ABC294640 added to second and third differentiation medium

`O=C(NCc1ccncc1)C12CC3CC(C1)CC(c1ccc(Cl)cc1)(C3)C2` [ABC294640] was tested, and the “yield of HSPCs” value (iPSCs [1]; [5]) was “reducing”, the “yield of iNK cells differentiated from these HSPCs” value (iPSCs [1]; [5]) was “significantly increase” and the “proliferation rate of iNK cells” value (iPSCs [1]) was “increase”.

In the case of `Cc1c[nH]c(-c2cnc(NCCNc3ccc(C#N)cn3)nc2-c2ccc(Cl)cc2Cl)n1` [CHIR99021], the “expression of OCT4” value (iPSCs [2]) is reported as “decreased significantly”, the “expression of early mesoderm and mesoderm markers (MIXL1 and T)” value (iPSCs [2]) is reported as “began to decrease” and the “expression of hemogenic endothelial lineage-related markers (KDR, SCL)” value (iPSCs [2]) is reported as “increased significantly”. The “expression of the HSPC marker (CD34)” value (iPSCs [2]) was “significantly increased” and the “proportion of CD34+ cells in the cell population” value (iPSCs [3]) was “increase”.

For `NC(=O)c1ccc[n+]([C@@H]2O[C@H](COP(=O)([O-])OP(=O)(O)OC[C@H]3O[C@@H](n4cnc5c(N)ncnc54)[C@H](O)[C@@H]3O)[C@@H](O)[C@H]2O)c1` [NAD^+, nicotinamide adenine dinucleotide], the “proportion of CD56+ or CD45+ cells” value (iPSCs [1]) was “without affecting”, the “yield of iNK cells” value (iPSCs [1]) was “increase” and the “proliferation rate of iNK cells” value (iPSCs [1]) was “increase”.

With `C[S+]([O-])c1ccc(-c2nc(-c3ccncc3)c(-c3ccc(F)cc3)[nH]2)cc1` (stereo not drawn) [SB203580] the “proportion of CD56+ or CD45+ cells” value (iPSCs [1]) was “without affecting”, the “yield of iNK cells” value (iPSCs [1]) was “increase” and the “proliferation rate of iNK cells” value (iPSCs [1]) was “increase”.

With `CC(C)n1cnc2c(NCCc3ccc(O)cc3)nc(-c3csc4ccccc34)nc21` [SR1] the “proportion of CD34+ cells in the cell population” value (iPSCs [3]) was “increase”.

For `Cn1nnc(-c2ccc3c(c2)[nH]c2nc(Cc4ccccc4)nc(NC4CCC(N)CC4)c23)n1` (stereo not drawn) [UM171], the “yield of HSPCs differentiated from iPSCs” value (iPSCs [4]; Day 12) was “increase” and the “yield of iNK cells differentiated from HSPCs” value (iPSCs [4]; Day 35) was “increase”.

B1: BMP4: growth factor added to the first and second differentiation medium (protein, UniProt P12644 293-408, looked up)
Bone morphogenetic protein 4: SPKHHSQRARKKNKNCRRHSLYVDFSDVGWNDWIVAPPGYQAFYCHGDCPFPLADHLNSTNHAIVQTLVNSVNSSIPKACCVPTELSAISMLYLDEYDKVVLKNYQEMVVEGCGCR
For B1, the “expression of OCT4” value (iPSCs [2]) was “decreased significantly”, the “expression of early mesoderm and mesoderm markers (MIXL1 and T)” value (iPSCs [2]) was “began to decrease” and the “expression of hemogenic endothelial lineage-related markers (KDR, SCL)” value (iPSCs [2]) was “increased significantly”. The “expression of the HSPC marker (CD34)” value (iPSCs [2]) was “significantly increased”.
